# According to patent publication US10072065B2, “Peptide-mediated delivery of immunoglobulins across the blood-brain barrier” (Mayo Foundation for Medical Education and Research, priority 2015, dated 2018):
# Tested on: blood-brain barrier (BBB)
# Assay: Transportation of Evan's Blue (EB) across the BBB after IV Apo-I or peptide-cetuximab complex
# Type: in vivo, mouse
# Details: ~40 μL 2% EB only, IV femoral vein, brain evaluated approximately 2 hours after dye (brain number 1)
# Description: To explore whether Apo-I transports an antibody across the BBB, the peptide or a peptide-cetuximab complex were first injected by IV followed by injection of Evan's Blue (EB; a routinely used small molecule blue dye with a molecular weight of 960.81) by IV into the femoral vein of a mouse. Cardiac perfusion was performed and the brains of the mice were removed and evaluated approximately 2 hours following injection of the dye. As a control, injection of EB only was used. The particulars of each administration are as follows: • 1) ˜40 μL 2% EB only was injected. • 2) 300 μg of Apo-I was injected first, then ˜40 μL 2% EB was injected. • 3) 600 μg of Apo-I was injected first, then ˜40 μL 2% EB was injected. • 4) 600 μg of Apo-I was mixed with 200 μg cetuximab prior to injection and then injected first, then ˜40 μL 2% EB was injected.
structure (smiles),measurement,value
"Cc1cc(-c2ccc(/N=N/c3ccc4c(S(=O)(=O)[O-])cc(S(=O)(=O)[O-])c(N)c4c3O)c(C)c2)ccc1/N=N/c1ccc2c(S(=O)(=O)[O-])cc(S(=O)(=O)[O-])c(N)c2c1O.[Na+].[Na+].[Na+].[Na+] [EB, Evan's Blue]",EB reaching the brain (blue coloring of brain),cannot reach the brain
